This is an account of results in PubChem BioAssay (NCI).

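Each compound was tested at five concentrations against cells in 96-well plates for 48 hours. TGI: concentration producing complete growth inhibition.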

The first assay deals with HCT-116 colon. As to the kind of experiment: inhibition of tumour cell growth, NCI panel, 48 h.
Regarding `O=C(CN1CCCCC1)Nc1ccc2sc3ccccc3c(=O)c2n1`, the TGI is 26.2 µM.

With `CCOC(=O)/C(C#N)=C\c1ccc(N(CCC(=O)O)CCC(=O)O)c(I)c1`, the TGI was over 10 µM.

As to `CCOC(=O)P(=O)(O)c1ccc(N(C)Cc2ccccc2)cc1`, the TGI was over 100 µM.

`C=C(C)C1=CCC[C@]2(C1)N=C(OC)[C@@H](C(C)C)N=C2OC` registered a TGI of over 100 µM.

On to `CC(=O)C(=C(c1ccccc1)c1ccccc1)c1ccccc1`, for which the TGI was over 100 µM.

The compound `O=[N+]([O-])/C(C(Cl)=C(Cl)Cl)=C(\N1CCOCC1)n1nnc2ccccc21` returned a TGI of over 100 µM.

`C=CCNC(=O)NC(=O)CSC1=NNC2(C(=O)N1)c1ccccc1-c1ccccc12` gave a TGI of over 10 µM.

Take `O=C1/C(=C/c2cccc(F)c2)CCCc2ccccc21`: the TGI is 29 µM.

The compound `CC1=NN(C(=O)c2ccccc2O)C(=O)/C1=C/c1ccco1` had a TGI of over 100 µM.

The compound `COc1ccc2[nH]cc(CCNC(=O)[C@H](Cc3ccccc3)NC(=O)[C@@H](NCC(F)(F)F)C(C)C)c2c1` yielded a TGI of 32 µM.

`CCc1n[nH]c(=O)n1/N=C/c1c(O)ccc2ccccc12` had a TGI of over 100 µM.

Regarding `C(=C\c1cccs1)/c1cccc(/C=C/c2cccs2)n1`, the TGI is over 100 µM.

For the compound `Cn1c(=O)c(Br)c(C=O)n(CCO[N+](=O)[O-])c1=O`, the TGI came out at 16.1 µM.

Regarding `NN(CC(=O)O)CC(=O)O`, the TGI was over 100 µM.

As to `C=CCN1C(=O)C=C(c2ccccc2)n2ncc3cccc1c32`, the TGI was over 100 µM.

Another assay has as its system HCT-15 colon. As to the kind of experiment: inhibition of tumour cell growth, NCI panel, 48 h.
For `O=C(CN1CCCCC1)Nc1ccc2sc3ccccc3c(=O)c2n1`, the TGI was found to be 40.2 µM.

Take `CCOC(=O)/C(C#N)=C\c1ccc(N(CCC(=O)O)CCC(=O)O)c(I)c1`: the TGI is over 10 µM.

Regarding `CCOC(=O)P(=O)(O)c1ccc(N(C)Cc2ccccc2)cc1`, the TGI is over 100 µM.

As to `C=C(C)C1=CCC[C@]2(C1)N=C(OC)[C@@H](C(C)C)N=C2OC`, the TGI is over 100 µM.

Regarding `CC(=O)C(=C(c1ccccc1)c1ccccc1)c1ccccc1`, the TGI is over 100 µM.

`O=C1NC2ON=C(c3ccccc3)C2C2ON=C(c3ccccc3)N12` (stereo unspecified) showed a TGI of over 100 µM.

Compound `O=[N+]([O-])/C(C(Cl)=C(Cl)Cl)=C(\N1CCOCC1)n1nnc2ccccc21` showed a TGI of 29.6 µM.

The compound `C=CCNC(=O)NC(=O)CSC1=NNC2(C(=O)N1)c1ccccc1-c1ccccc12` yielded a TGI of over 10 µM.

Consider `O=C1/C(=C/c2cccc(F)c2)CCCc2ccccc21`, for which the TGI was determined as 29.3 µM.

Regarding `CC1=NN(C(=O)c2ccccc2O)C(=O)/C1=C/c1ccco1`, the TGI was over 100 µM.

`COc1ccc2[nH]cc(CCNC(=O)[C@H](Cc3ccccc3)NC(=O)[C@@H](NCC(F)(F)F)C(C)C)c2c1` yielded a TGI of 42.2 µM.

`CCc1n[nH]c(=O)n1/N=C/c1c(O)ccc2ccccc12` showed a TGI of over 100 µM.

In turn, `C(=C\c1cccs1)/c1cccc(/C=C/c2cccs2)n1` gave a TGI of over 100 µM.

`Cn1c(=O)c(Br)c(C=O)n(CCO[N+](=O)[O-])c1=O`: the TGI was 20 µM.

`NN(CC(=O)O)CC(=O)O` returned a TGI of over 100 µM.

As to `C=CCN1C(=O)C=C(c2ccccc2)n2ncc3cccc1c32`, the TGI is over 100 µM.

For a further assay, the system named is HL-60(TB) leukemia. As to the kind of experiment: inhibition of tumour cell growth, NCI panel, 48 h.
In turn, `O=C(CN1CCCCC1)Nc1ccc2sc3ccccc3c(=O)c2n1` gave a TGI of 68.9 µM.

The compound `CCOC(=O)/C(C#N)=C\c1ccc(N(CCC(=O)O)CCC(=O)O)c(I)c1` returned a TGI of over 10 µM.

On to `CCOC(=O)P(=O)(O)c1ccc(N(C)Cc2ccccc2)cc1`, for which the TGI was over 100 µM.

In turn, `C=C(C)C1=CCC[C@]2(C1)N=C(OC)[C@@H](C(C)C)N=C2OC` registered a TGI of 87.9 µM.

For the compound `CC(=O)C(=C(c1ccccc1)c1ccccc1)c1ccccc1`, the TGI is over 100 µM.

As for `C=CCNC(=O)NC(=O)CSC1=NNC2(C(=O)N1)c1ccccc1-c1ccccc12`, the TGI was over 10 µM.

`O=C1/C(=C/c2cccc(F)c2)CCCc2ccccc21` had a TGI of 62.9 µM.

As for `CC1=NN(C(=O)c2ccccc2O)C(=O)/C1=C/c1ccco1`, the TGI was over 26.8 µM.

Take `COc1ccc2[nH]cc(CCNC(=O)[C@H](Cc3ccccc3)NC(=O)[C@@H](NCC(F)(F)F)C(C)C)c2c1`: the TGI came to 46.2 µM.

Compound `C(=C\c1cccs1)/c1cccc(/C=C/c2cccs2)n1` yielded a TGI of over 100 µM.

In the case of `Cn1c(=O)c(Br)c(C=O)n(CCO[N+](=O)[O-])c1=O`, the TGI was found to be 4.46 µM.

Compound `NN(CC(=O)O)CC(=O)O` had a TGI of over 100 µM.

In the case of `C=CCN1C(=O)C=C(c2ccccc2)n2ncc3cccc1c32`, the TGI was over 100 µM.

Another assay relates to HOP-62 NSCLC. In words: inhibition of tumour cell growth, NCI panel, 48 h.
In turn, `O=C(CN1CCCCC1)Nc1ccc2sc3ccccc3c(=O)c2n1` displayed a TGI of 33.3 µM.

In turn, `CCOC(=O)/C(C#N)=C\c1ccc(N(CCC(=O)O)CCC(=O)O)c(I)c1` had a TGI of over 10 µM.

Consider `CCOC(=O)P(=O)(O)c1ccc(N(C)Cc2ccccc2)cc1`, for which the TGI was over 100 µM.

As to `C=C(C)C1=CCC[C@]2(C1)N=C(OC)[C@@H](C(C)C)N=C2OC`, the TGI was over 100 µM.

Take `CC(=O)C(=C(c1ccccc1)c1ccccc1)c1ccccc1`: the TGI is over 100 µM.

`O=C1NC2ON=C(c3ccccc3)C2C2ON=C(c3ccccc3)N12` (stereo unspecified) had a TGI of over 100 µM.

For the compound `O=[N+]([O-])/C(C(Cl)=C(Cl)Cl)=C(\N1CCOCC1)n1nnc2ccccc21`, the TGI amounted to 36.2 µM.

In the case of `C=CCNC(=O)NC(=O)CSC1=NNC2(C(=O)N1)c1ccccc1-c1ccccc12`, the TGI is over 10 µM.

`O=C1/C(=C/c2cccc(F)c2)CCCc2ccccc21` had a TGI of 27.4 µM.

Compound `COc1ccc2[nH]cc(CCNC(=O)[C@H](Cc3ccccc3)NC(=O)[C@@H](NCC(F)(F)F)C(C)C)c2c1` gave a TGI of 36.2 µM.

Take `CCc1n[nH]c(=O)n1/N=C/c1c(O)ccc2ccccc12`: the TGI is over 100 µM.

`C(=C\c1cccs1)/c1cccc(/C=C/c2cccs2)n1` gave a TGI of over 100 µM.

For `Cn1c(=O)c(Br)c(C=O)n(CCO[N+](=O)[O-])c1=O`, the TGI came to 37.5 µM.

As to `NN(CC(=O)O)CC(=O)O`, the TGI is over 100 µM.

In turn, `C=CCN1C(=O)C=C(c2ccccc2)n2ncc3cccc1c32` registered a TGI of over 100 µM.

The subject of the next assay is HOP-92 NSCLC. As to the kind of experiment: inhibition of tumour cell growth, NCI panel, 48 h.
`O=C(CN1CCCCC1)Nc1ccc2sc3ccccc3c(=O)c2n1`: the TGI worked out at 30 µM.

As to `CCOC(=O)/C(C#N)=C\c1ccc(N(CCC(=O)O)CCC(=O)O)c(I)c1`, the TGI is over 10 µM.

`CCOC(=O)P(=O)(O)c1ccc(N(C)Cc2ccccc2)cc1` yielded a TGI of over 100 µM.

In turn, `C=C(C)C1=CCC[C@]2(C1)N=C(OC)[C@@H](C(C)C)N=C2OC` registered a TGI of over 100 µM.

`CC(=O)C(=C(c1ccccc1)c1ccccc1)c1ccccc1` came in with a TGI of over 100 µM.

Turning to `O=[N+]([O-])/C(C(Cl)=C(Cl)Cl)=C(\N1CCOCC1)n1nnc2ccccc21`, the TGI turned out to be 37.6 µM.

Compound `C=CCNC(=O)NC(=O)CSC1=NNC2(C(=O)N1)c1ccccc1-c1ccccc12` registered a TGI of over 10 µM.

As for `O=C1/C(=C/c2cccc(F)c2)CCCc2ccccc21`, the TGI amounted to 29.2 µM.

Consider `CC1=NN(C(=O)c2ccccc2O)C(=O)/C1=C/c1ccco1`, for which the TGI was over 71.4 µM.

The compound `COc1ccc2[nH]cc(CCNC(=O)[C@H](Cc3ccccc3)NC(=O)[C@@H](NCC(F)(F)F)C(C)C)c2c1` registered a TGI of 28.4 µM.

In turn, `CCc1n[nH]c(=O)n1/N=C/c1c(O)ccc2ccccc12` displayed a TGI of over 100 µM.

`C(=C\c1cccs1)/c1cccc(/C=C/c2cccs2)n1`: the TGI was over 100 µM.
